The results in this text go back to paper PMC10755729, “A Multiplexing Activity-Based Protein-Profiling Platform for Dissection of a Native Bacterial Xyloglucan-Degrading System” (ACS Central Science, 2023).

One test has as its target T1, CjXyl39A; Xyl39A (Cellvibrio japonicus, UniProt B3PD50).
T1 construct: recombinant, produced in E. coli (native in the pull-down)
T1 sequence (B3PD50 24-521): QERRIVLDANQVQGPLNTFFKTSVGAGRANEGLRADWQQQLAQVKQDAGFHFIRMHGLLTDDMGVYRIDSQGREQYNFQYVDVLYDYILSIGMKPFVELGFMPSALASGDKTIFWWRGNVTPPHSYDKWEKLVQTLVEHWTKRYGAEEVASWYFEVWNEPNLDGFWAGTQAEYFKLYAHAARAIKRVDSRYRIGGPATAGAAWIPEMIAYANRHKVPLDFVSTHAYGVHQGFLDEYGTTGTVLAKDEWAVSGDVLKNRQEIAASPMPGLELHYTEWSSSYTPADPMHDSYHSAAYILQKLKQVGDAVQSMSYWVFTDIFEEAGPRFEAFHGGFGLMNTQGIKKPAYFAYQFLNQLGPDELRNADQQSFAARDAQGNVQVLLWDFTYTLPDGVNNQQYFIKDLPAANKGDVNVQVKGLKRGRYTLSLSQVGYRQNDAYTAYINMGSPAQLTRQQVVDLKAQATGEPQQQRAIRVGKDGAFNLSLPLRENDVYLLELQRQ
As to the kind of experiment: fluorogenic activity assay on 4MU glycosides. Format: biochemical. Particulars: recombinant enzyme.

Another test has as its target T2, CjCel5B (Cellvibrio japonicus, UniProt B3PCS3).
T2 construct: gene cel5B; recombinant, produced in E. coli; native protein has N-terminal catalytic domain, serine-rich linker and C-terminal domain; borders of construct only in supplement
T2 sequence (B3PCS3 38-570): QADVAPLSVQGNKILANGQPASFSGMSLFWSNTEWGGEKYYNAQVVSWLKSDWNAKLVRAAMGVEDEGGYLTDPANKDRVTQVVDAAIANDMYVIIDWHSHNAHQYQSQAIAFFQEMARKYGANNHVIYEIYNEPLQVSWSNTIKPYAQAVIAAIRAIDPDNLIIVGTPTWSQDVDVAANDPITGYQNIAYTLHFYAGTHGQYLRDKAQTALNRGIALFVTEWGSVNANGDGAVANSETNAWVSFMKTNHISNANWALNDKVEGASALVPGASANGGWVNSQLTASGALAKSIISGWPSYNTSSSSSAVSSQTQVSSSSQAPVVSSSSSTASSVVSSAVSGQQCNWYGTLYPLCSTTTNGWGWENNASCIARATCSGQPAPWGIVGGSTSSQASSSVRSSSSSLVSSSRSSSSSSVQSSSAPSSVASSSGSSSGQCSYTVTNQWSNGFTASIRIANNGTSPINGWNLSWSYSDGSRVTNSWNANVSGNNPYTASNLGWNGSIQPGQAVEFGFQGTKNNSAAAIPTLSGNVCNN
The experiment in a line: fluorogenic hydrolysis kinetics. It is filed as biochemical. Particulars: 4MU release.

As for `Cc1cc(=O)oc2cc(O[C@@H]3OC[C@@H](O)[C@H](O)[C@H]3O)ccc12` [4-methylumbelliferyl (4MU) glycoside of β-D-xylose], the activity entry on CjXyl39A; Xyl39A is given as “showed specific recognition of β-D-xylose over other glycosides”.

As to `Cc1cc(=O)oc2cc(O[C@@H]3O[C@H](CO)[C@@H](O[C@@H]4O[C@H](CO[C@H]5OC[C@@H](O)[C@H](O)[C@H]5O)[C@@H](O[C@@H]5O[C@H](CO[C@H]6OC[C@@H](O)[C@H](O)[C@H]6O)[C@@H](O[C@@H]6O[C@H](CO[C@H]7OC[C@@H](O)[C@H](O)[C@H]7O)[C@@H](O)[C@H](O)[C@H]6O)[C@H](O)[C@H]5O)[C@H](O)[C@H]4O)[C@H](O)[C@H]3O)ccc12` [4MU-XXXG], the hydrolysis kinetics result at CjCel5B is “Kinetics for the hydrolysis of 4MU-XXXG and commercially available 4MU-cellotetraose were measured”.
